How the values were obtained:
Experiment in all cases: relative viability (nuclei count vs DMSO), 5 days (fraction); higher = more cells survive
[1] = compound: CCn1c(-c2nonc2N)nc2cnc(Oc3cccc(NC(=O)c4ccc(OCCN5CCOCC5)cc4)c3)cc21 + CCNC(=O)c1noc(-c2cc(C(C)C)c(O)cc2O)c1-c1ccc(CN2CCOCC2)cc1 [Luminespib] (partner 0.01 µM)
In short: (§1)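 Dosing by pin tool came one day after lung cancer cell lines were seeded in 1536-well plates, using either one drug or a fixed anchor-drug dose plus five library-drug doses (not always all listed) in √10 steps. After 5 days, nuclei were counted on 4× images. Relative viability is treated-well nuclei count divided by vehicle-well nuclei count, and values are medians of duplicate plates.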

[2] = compound: CCn1c(-c2nonc2N)nc2cnc(Oc3cccc(NC(=O)c4ccc(OCCN5CCOCC5)cc4)c3)cc21 + CC(C)C[C@H](NC(=O)[C@H](Cc1ccccc1)NC(=O)c1cnccn1)B(O)O [Bortezomib] (partner 0.002 µM)
In short: as §1

[3] = compound: N=C1NC(=O)/C(=C/c2ccc(O)cc2)S1 [Mirin] + CCNC(=O)c1noc(-c2cc(C(C)C)c(O)cc2O)c1-c1ccc(CN2CCOCC2)cc1 [Luminespib] (partner 0.01 µM)
In short: as §1

[4] = compound: CCC1=CN=CN=C1N2CCN(CC2)CC3=NC4=C(N3)C=C(C=C4)C(F)(F)F + Nc1nc2[nH]cc(CCc3ccc(C(=O)N[C@@H](CCC(=O)O)C(=O)O)cc3)c2c(=O)[nH]1 [Pemetrexed] (partner 0.2 µM)
In short: as §1

Cell Line	relative viability ([1]; first compound 0.04 µM)	relative viability ([1]; first compound 0.1265 µM)	relative viability ([1]; first compound 0.4 µM)	relative viability ([1]; first compound 1.265 µM)	relative viability ([1]; first compound 4 µM)	relative viability ([2]; first compound 0.04 µM)	relative viability ([2]; first compound 0.1265 µM)	relative viability ([2]; first compound 0.4 µM)	relative viability ([2]; first compound 1.265 µM)	relative viability ([2]; first compound 4 µM)	relative viability ([3]; first compound 0.25 µM)	relative viability ([3]; first compound 0.7906 µM)	relative viability ([3]; first compound 2.5 µM)	relative viability ([3]; first compound 7.906 µM)	relative viability ([3]; first compound 25 µM)	relative viability ([4]; first compound 0.04 µM)	relative viability ([4]; first compound 0.1265 µM)	relative viability ([4]; first compound 0.4 µM)	relative viability ([4]; first compound 1.265 µM)	relative viability ([4]; first compound 4 µM)
201T	1.1	1.02	1.05	1.06	1.07	1.06	1.02	1.11	1.02	1.03	1.05	1.11	1.08	1.09	1.14	0.274	0.312	0.297	0.322	0.375
A-427	1.14	0.974	0.627	0.416	0.524	1.16	0.952	0.892	0.946	0.475	0.756	1.01	0.905	0.89	0.952	0.761	0.934	0.873	0.835	0.898
ABC-1	0.633	0.617	0.367	0.254	0.248	0.483	0.302	0.262	0.256	0.285	0.746	0.879	0.73	0.534	0.341					
BEN	0.496	0.235	0.158	0.163	0.249	0.747	0.655	0.321	0.306	0.303	0.484	0.593	0.503	0.315	0.217	0.605	0.651	0.667	0.551	0.676
CAL-12T	0.687	0.444	0.287	0.379	0.286	1.23	1.08	0.834		0.678	0.364		0.369	0.696	0.548	1.3	1.18	1.19	1.24	1.18
COR-L23	0.62	0.463	0.447	0.15	0.106	1.08	0.646	0.238	0.185	0.193	0.763	0.726	0.609	0.626	0.499	0.208	0.199	0.189	0.198	0.206
COR-L 105	0.657	0.282	0.592	0.445	0.247	0.734	0.625	0.519	0.319	0.319	0.741	0.852	0.692	0.51	0.544	1.07	1.12	1.28	1.01	1.03
Calu-6						1.03	0.922	0.771	0.5	0.469										
ChaGo-K-1	0.586	0.691	0.706	0.48	0.454	1.45	0.892	0.752		0.688	0.555	0.295	0.705	0.429	0.306	0.253	0.261	0.275	0.258	0.262
EBC-1						0.771	0.566	0.537	0.458	0.342										
EKVX	1.03	0.807	0.898	0.765	0.645	1.22	1.05	0.902	0.932	1.02	0.868	0.754	0.907	0.74	0.886	0.425	0.395	0.399	0.404	0.384
EMC-BAC-2	1.13	1.16	1.1	0.863	0.662	1.18	0.967	0.792	0.731	0.442	1.08	1.13	1.13	1.17	1.1	0.436	0.43	0.455	0.418	0.469
EPLC-272H	0.263	0.697	0.265	0.26	0.286	1.02	1.21	0.841	0.645	0.783	0.176		0.311	0.198	0.185	0.308	0.33	0.276	0.318	0.281
H3255	1.02	0.819	0.735	0.571	0.599	1.03	0.9	0.728	0.526	0.531	0.825	0.79	0.943	0.712	0.821	0.59	0.552	0.59	0.568	0.575
HARA	0.839	1.18	0.682	0.801	0.678	1.19	0.943	0.36	0.176	0.145	0.808		0.693	0.773	0.372	0.276	0.242	0.227	0.226	0.222

From the supplement of paper PMC10307832
